Reference: patent US20200055948A1, “CELLS EXPRESSING A BCMA-TARGETING CHIMERIC ANTIGEN RECEPTOR, AND COMBINATION THERAPY WITH A GAMMA SECRETASE INHIBITOR” (Novartis AG, priority 2017, published 2020)

Columns and labels:
membrane BCMA expression = experiment: GSI enhancement of membrane BCMA (mBCMA) expression, flow cytometry after 72 hours, NCI-H929, MM1S, U266B1 (Example 2, Table 30, FIG. 3); format: cell-based; settings: Homo sapiens
Description: (§1) FIG. 3 is a panel of graphs comparing soluble/shed BCMA (sBCMA) levels to membrane-bound BCMA (mBCMA) levels in MM1S cell cultures treated with various gamma secretase inhibitors for 72 hours.
(§2) Target human cancer cell lines expressing various levels of human BCMA (NCI-H929^[High], MM1S^[med], U266B1^[low]) were all transduced to constitutively express luciferase, which is used to measure cell viability/survival with the BrightGlo reagent (Promega E2650). Target cells were plated 30,000 cells per well in a 96 well plate (Costar 3904) together with serial dilutions of a panel of gamma secretase inhibitors (Table 29). The plate was incubated at 37° C./5% CO2 for 72 hours, followed by measurements of cell viability (BrightGlo, Promega # E2650) according to vendor protocol. In a replicate set of assay plates, cell culture supernatants were collected by centrifugation and quantified for levels of soluble BCMA by ELISA (R&D Systems, DY193), and the remaining cells were stained with a PE conjugated BCMA antibody (clone 19F2, Biolegend 357504) and analyzed by flow cytometry for BCMA cell surface expression levels.
(§3) Raw OD450 values from the BCMA ELISA were plotted together with the mean fluorescent intensity values from flow cytometry analysis of cells stained with anti-BCMA antibody, and are shown for MM1S cells treated with the various GSIs in FIG. 3. Table 30 summarizes the EC50 results of all the GSIs on the three BCMA-expressing cell lines.

shed/soluble BCMA = experiment: GSI inhibition of shed/soluble BCMA (sBCMA), ELISA of supernatants after 72 hours, NCI-H929, MM1S, U266B1 (Example 2, Table 30, FIG. 3); format: cell-based, human; settings: for EC50: Homo sapiens, 72 hours, ELISA of supernatants; for efficacious concentrations, rank among the panel of GSIs: inhibition of BCMA shedding and enhancement of membrane BCMA, Table 30
Description: as §1, §2, §3

soluble BCMA = experiment: Soluble BCMA in supernatants of MM cell lines U266 or RPMI 8226 by sandwich ELISA after 48 hrs GSI (Example 3, FIGS. 5A and 5B); format: cell-based, human; settings: RPMI 8226 cells treated, 6 μM-100 μM
Description: FIGS. 5A and 5B are a pair of graphs showing that a gamma secretase inhibitor reduces soluble BCMA released by MM cell lines. In FIGS. 5A and 5B, the amount of soluble BCMA (pg/ml) as measured by ELISA is plotted for each GSI concentration tested.
MM cell lines U266 or RPMI 8226 were incubated with several concentrations (6 μM-100 μM) of Ly 411575 gamma secretase inhibitor (Miltenyi) for 48 hrs. Supernatants were collected and secreted BCMA was measured using a sandwich ELISA (BCMA/TNFRSF17 ELISA Duo set, R&D Systems).

[1] = system: BCMA cell surface expression; experiment: BCMA cell surface expression by flow cytometry with PE conjugated BCMA antibody, with or without GSI (Example 1, FIG. 1); format: cell-based, human; settings: BCMA-expressing multiple myeloma cell lines
Description: FIG. 1 is a set of histogram plots showing the staining of BCMA-expressing human cancer cell lines, NCI-H929, MM1S, and U266B1, using a PE conjugated anti-BCMA antibody. The cell lines were untreated, or treated with 1.0 μM DAPT or 0.1 μM LY-411,575 before subjected to a flow cytometry analysis.
Human cancer cell lines expressing various levels of human BCMA (NCI-H929^[High] MM1S^[Med], and U266B1^[low]) were all transduced to constitutively express luciferase, which is used to measure cell viability/survival with the BrightGlo reagent (Promega # E2650).
BCMA expressing cell lines were treated overnight with and without GSIs. Cell culture supernatants were collected and quantified for levels of soluble BCMA by ELISA (R&D Systems, # DY193). Additionally, remaining cells were pelleted, stained with a PE conjugated BCMA antibody (clone 19F2, Biolegend #357504) and analyzed by flow cytometry for BCMA cell surface expression levels.
BCMA cell surface expression level was determined by flow cytometry on cell lines with or without GSI treatment.

SMILES | EC50 (membrane BCMA expression; MM1.S, MM1S cells) | EC50 (membrane BCMA expression; NCI-H929, H929 cells) | EC50 (membrane BCMA expression; U266B1 cells) | EC50 (shed/soluble BCMA; MM1.S, MM1S cells) | EC50 (shed/soluble BCMA; NCI-H929, H929 cells) | EC50 (shed/soluble BCMA; U266B1 cells) | secreted BCMA (soluble BCMA) | efficacious concentrations, rank among the panel of GSIs (shed/soluble BCMA) | cell surface expression of BCMA (in words) [1]
CC(C)(C(=O)NCC(F)(F)C(F)(F)F)C(=O)N[C@@H]1C(=O)Nc2ccccc2-c2ccccc21 [RO4929097] | 3.2 nM | 4.4 nM | 10.1 nM | 4.6 nM | 3 nM | 6.2 nM | – | – | –
CCC[C@H](N[C@H]1CCc2cc(F)cc(F)c2C1)C(=O)Nc1cn(C(C)(C)CNCC(C)(C)C)cn1 [PF-3084014, (S)-2-(((S)-6,8-difluoro-1,2,3,4-tetrahydronaphthalen-2-yl)amino)-N-(1-(2-methyl-1-(neopentylamino)propan-2-yl)-1H-imidazol-4-yl)pentanamide] | 36.6 nM | 31.6 nM | 70.4 nM | 32.2 nM | 34.8 nM | 67.2 nM | – | – | –
C[C@H](NC(=O)[C@@H](O)c1cc(F)cc(F)c1)C(=O)N[C@@H]1C(=O)N(C)c2ccccc2-c2ccccc21 [LY-411575, (S)-2-((S)-2-(3,5-difluorophenyl)-2-hydroxyacetamido)-N—((S)-5-methyl-6-oxo-6,7-dihydro-5H-dibenzo[b,c]azepin-7-yl)propanamide] | – | 0.1 nM | 0.1 nM | 0.1 nM | 0.2 nM | 0.1 nM | 200 pg/mL | most potent | strongly enhances
C[C@H](NC(=O)Cc1cc(F)cc(F)c1)C(=O)N[C@H](C(=O)OC(C)(C)C)c1ccccc1 [DAPT] | 97.4 nM | 145 nM | 401 nM | 144 nM | 220 nM | 459 nM | – | – | strongly enhances
CC(C)[C@H](O)C(=O)N[C@@H](C)C(=O)N[C@@H]1C(=O)N(C)CCc2ccccc21 [LY-450139, (S)-2-hydroxy-3-methyl-N—((S)-1-(((S)-3-methyl-2-oxo-2,3,4,5-tetrahydro-1H-benzo[d]azepin-1-yl)amino)-1-oxopropan-2-yl)butanamide] | 40.7 nM | 54.8 nM | 190 nM | 65 nM | 99.9 nM | 236 nM | – | – | –
O=S(=O)(N[C@@H](CO)C(C(F)(F)F)C(F)(F)F)c1ccc(Cl)s1 [PF-5212362, (R)-5-chloro-N-(4,4,4-trifluoro-1-hydroxy-3-(trifluoromethyl)butan-2-yl)thiophene-2-sulfonamide] | 52.2 nM | 13.8 nM | 560 nM | 121 nM | 137 nM | 583 nM | – | – | –

Continued, in another order:

EC50 (membrane BCMA expression; MM1.S, MM1S cells) | EC50 (membrane BCMA expression; NCI-H929, H929 cells) | EC50 (membrane BCMA expression; U266B1 cells) | EC50 (shed/soluble BCMA; MM1.S, MM1S cells) | EC50 (shed/soluble BCMA; NCI-H929, H929 cells) | EC50 (shed/soluble BCMA; U266B1 cells) | SMILES | secreted BCMA (soluble BCMA) | efficacious concentrations, rank among the panel of GSIs (shed/soluble BCMA) | cell surface expression of BCMA (in words) [1]
7.4 nM | 3.6 nM | 32.4 nM | 13.3 nM | 2.5 nM | 29.8 nM | NC(=O)[C@@H](CCC(F)(F)F)N(Cc1ccc(-c2ncon2)cc1F)S(=O)(=O)c1ccc(Cl)cc1 [BMS-708163, (R)-2-((4-chloro-N-(2-fluoro-4-(1,2,4-oxadiazol-3-yl)benzyl)phenyl)sulfonamido)-5,5,5-trifluoropentanamide] | – | – | –
332 nM | 69.3 nM | 1210 nM | 566 nM | 269 nM | 1060 nM | O=C(O)CC[C@H]1CC[C@@](c2cc(F)ccc2F)(S(=O)(=O)c2ccc(Cl)cc2)CC1 [MK-0752, 3-((1S,4R)-4-((4-chlorophenyl)sulfonyl)-4-(2,5-difluorophenyl)cyclohexyl)propanoic acid] | – | – | –
485 nM | 152 nM | 1690 nM | 800 nM | 528 nM | – | C[C@H](c1ccc(F)cc1CCCC(=O)O)N(c1cc(F)ccc1F)S(=O)(=O)c1ccc(Cl)cc1 [BMS-299897] | – | least | –
